Common to all, as to format: biochemical
The target of test [1] is T1, ethyl 4-chloroacetoacetate reductase (Kluyveromyces lactis, UniProt Q6CT25).
T1 construct: almost single band, about 190 kDa on SDS-PAGE
Kind of test: Substrate specificity: reducing activity of the enzyme on various ketones and aldehydes. To be noted: for Relative activity: coenzyme NADPH, ethyl 4-chloroacetoacetate-reducing activity = 100%; for Reducing activity on substrate (in words): NADPH as electron donor. Here is the method:
(§1) In these examples, the 4-haloacetoacetic acid ester-reducing activity of the enzyme of this invention was determined by allowing it to react in a reaction system containing 50 mM potassium phosphate buffer (pH 6.5), 0.2 mM NADPH, 20 mM ethyl 4-chloroacetoacetate, and the enzyme at 30° C. and measuring the decrease in the absorbance at 340 nm in proportion to the decrease of NADPH. One unit of the enzyme was defined as the amount of the enzyme to catalyze a decrease of 1 μmol of NADPH per min. Protein was quantitated by the pigment binding method using a protein assay kit manufactured by BioRad.

For test [2], the target named is T1, ethyl 4-chloroacetoacetate reductase. The experiment in a line: Effects of various inhibitors on the ethyl 4-chloroacetoacetate-reducing activity. On the procedure: as §1
After the enzyme obtained in Example 1 was treated with various reagents at 30° C. for 10 min, it was assayed for the remaining activity to reduce ethyl 4chloroacetoacetate.

Test [3] has the same target. Kind of test: Substrate specificity: reducing activity of the enzyme on various ketones and aldehydes. Conditions: substrate 20 mM, coenzyme NAD; ethyl 4-chloroacetoacetate-reducing activity = 100%.
The mark [4] stands for this setting: inhibitor 1 mM, 30° C., 10 min, standard conditions = 100%.
Setting [5] is: inhibitor 1 mM, 30° C., 10 min, standard conditions = 100%, read-out: Residual activity.

Where two headings read alike, the source gives them in different places.

T1 sequence (Q6CT25 1-1893): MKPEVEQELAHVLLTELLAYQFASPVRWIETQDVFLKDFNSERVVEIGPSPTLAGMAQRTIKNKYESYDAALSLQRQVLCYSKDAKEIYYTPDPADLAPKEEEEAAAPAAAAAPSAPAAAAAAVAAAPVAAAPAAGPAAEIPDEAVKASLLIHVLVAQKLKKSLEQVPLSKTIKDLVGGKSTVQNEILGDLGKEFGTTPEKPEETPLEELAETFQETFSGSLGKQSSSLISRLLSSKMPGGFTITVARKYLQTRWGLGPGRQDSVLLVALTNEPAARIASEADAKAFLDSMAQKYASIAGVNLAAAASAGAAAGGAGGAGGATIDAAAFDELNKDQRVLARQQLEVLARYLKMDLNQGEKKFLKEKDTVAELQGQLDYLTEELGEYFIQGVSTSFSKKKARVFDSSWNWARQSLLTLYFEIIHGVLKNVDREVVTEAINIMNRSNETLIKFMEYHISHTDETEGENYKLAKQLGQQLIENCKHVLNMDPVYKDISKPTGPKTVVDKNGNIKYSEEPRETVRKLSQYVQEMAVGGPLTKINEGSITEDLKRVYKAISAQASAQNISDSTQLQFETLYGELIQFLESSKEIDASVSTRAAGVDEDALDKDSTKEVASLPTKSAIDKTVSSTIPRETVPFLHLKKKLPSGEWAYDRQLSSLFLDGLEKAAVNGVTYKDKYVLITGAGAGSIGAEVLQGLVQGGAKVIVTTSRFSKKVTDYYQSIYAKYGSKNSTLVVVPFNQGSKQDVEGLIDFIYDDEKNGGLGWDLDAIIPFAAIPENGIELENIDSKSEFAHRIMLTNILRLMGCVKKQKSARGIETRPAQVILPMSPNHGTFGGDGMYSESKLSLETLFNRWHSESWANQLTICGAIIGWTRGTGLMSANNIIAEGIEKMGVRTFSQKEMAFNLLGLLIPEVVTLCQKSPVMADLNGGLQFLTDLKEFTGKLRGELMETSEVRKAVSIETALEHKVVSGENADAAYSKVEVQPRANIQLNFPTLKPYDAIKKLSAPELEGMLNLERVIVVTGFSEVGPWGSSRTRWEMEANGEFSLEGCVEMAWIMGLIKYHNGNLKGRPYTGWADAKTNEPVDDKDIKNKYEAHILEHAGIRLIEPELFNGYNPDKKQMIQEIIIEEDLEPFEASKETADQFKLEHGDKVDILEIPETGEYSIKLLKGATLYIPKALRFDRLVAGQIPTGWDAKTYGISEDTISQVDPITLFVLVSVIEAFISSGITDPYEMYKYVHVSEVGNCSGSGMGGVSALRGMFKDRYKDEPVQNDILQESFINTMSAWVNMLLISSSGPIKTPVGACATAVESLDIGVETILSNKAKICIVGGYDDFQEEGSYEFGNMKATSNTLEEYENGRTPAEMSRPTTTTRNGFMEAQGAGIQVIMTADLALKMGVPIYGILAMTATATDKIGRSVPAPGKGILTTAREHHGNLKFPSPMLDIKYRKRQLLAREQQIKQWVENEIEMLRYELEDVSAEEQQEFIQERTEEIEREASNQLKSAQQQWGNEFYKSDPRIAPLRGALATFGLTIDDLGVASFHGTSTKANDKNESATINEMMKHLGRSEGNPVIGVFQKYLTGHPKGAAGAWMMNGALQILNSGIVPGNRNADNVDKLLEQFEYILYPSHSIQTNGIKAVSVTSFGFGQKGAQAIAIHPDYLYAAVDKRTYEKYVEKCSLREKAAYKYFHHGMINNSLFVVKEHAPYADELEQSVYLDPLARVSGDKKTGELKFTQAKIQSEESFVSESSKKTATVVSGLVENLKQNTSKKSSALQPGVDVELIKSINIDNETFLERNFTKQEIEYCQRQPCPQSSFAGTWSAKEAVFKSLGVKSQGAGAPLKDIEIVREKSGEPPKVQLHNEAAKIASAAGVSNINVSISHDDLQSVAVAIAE
T1 sequence (Q6CWN6 1-2047 partner): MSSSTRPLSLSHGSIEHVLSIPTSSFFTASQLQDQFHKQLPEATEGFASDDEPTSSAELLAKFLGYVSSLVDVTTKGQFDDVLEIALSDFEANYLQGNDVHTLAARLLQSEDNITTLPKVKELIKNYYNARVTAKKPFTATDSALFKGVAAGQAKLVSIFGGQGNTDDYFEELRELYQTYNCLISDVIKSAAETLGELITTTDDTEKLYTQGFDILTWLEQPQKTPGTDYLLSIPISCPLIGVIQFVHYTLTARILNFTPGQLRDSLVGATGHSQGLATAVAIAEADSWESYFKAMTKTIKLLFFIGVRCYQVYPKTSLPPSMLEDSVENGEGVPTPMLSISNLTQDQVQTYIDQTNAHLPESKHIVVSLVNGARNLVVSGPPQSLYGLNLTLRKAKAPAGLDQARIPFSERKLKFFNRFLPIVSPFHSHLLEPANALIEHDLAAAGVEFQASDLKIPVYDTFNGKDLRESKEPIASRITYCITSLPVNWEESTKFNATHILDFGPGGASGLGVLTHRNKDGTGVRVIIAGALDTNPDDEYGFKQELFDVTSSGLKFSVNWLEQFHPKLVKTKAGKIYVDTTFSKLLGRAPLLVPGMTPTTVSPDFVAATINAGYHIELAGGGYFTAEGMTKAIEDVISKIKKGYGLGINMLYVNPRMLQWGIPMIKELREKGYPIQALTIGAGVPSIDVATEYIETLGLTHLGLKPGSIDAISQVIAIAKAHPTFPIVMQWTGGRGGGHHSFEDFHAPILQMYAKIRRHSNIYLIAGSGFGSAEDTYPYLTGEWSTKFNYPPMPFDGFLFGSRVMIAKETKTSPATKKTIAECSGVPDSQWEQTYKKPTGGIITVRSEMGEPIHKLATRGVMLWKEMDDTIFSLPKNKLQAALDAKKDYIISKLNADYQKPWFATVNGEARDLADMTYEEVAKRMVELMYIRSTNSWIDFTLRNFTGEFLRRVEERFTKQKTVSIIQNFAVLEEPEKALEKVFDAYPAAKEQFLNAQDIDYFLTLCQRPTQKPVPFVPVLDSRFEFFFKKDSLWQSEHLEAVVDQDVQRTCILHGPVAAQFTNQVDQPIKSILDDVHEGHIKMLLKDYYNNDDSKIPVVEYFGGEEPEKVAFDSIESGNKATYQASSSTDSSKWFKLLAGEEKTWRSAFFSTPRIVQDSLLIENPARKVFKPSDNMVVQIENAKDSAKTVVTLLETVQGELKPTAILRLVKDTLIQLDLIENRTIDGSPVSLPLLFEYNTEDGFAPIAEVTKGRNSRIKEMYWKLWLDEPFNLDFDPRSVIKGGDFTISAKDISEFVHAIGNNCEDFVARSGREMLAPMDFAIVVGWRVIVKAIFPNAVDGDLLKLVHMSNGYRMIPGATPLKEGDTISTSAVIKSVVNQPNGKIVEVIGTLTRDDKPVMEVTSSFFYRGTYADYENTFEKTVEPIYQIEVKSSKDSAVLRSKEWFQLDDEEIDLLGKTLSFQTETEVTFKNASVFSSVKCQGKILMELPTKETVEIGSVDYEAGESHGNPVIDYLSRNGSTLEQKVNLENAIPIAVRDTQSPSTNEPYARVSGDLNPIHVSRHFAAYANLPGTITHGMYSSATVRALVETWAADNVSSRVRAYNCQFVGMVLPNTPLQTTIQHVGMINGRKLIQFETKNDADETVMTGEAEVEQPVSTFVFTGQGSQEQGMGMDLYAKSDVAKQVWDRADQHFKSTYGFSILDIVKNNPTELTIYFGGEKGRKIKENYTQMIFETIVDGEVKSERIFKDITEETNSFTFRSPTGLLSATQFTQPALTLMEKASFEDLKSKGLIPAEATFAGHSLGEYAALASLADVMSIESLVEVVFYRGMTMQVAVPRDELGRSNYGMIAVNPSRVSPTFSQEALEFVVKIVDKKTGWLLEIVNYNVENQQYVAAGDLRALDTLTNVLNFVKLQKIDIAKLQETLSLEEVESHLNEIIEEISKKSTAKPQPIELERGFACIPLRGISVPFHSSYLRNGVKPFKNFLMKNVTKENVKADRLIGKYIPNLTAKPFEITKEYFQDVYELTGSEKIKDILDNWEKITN

`CC(=O)c1ccccc1` [Acetophenone]: the Relative activity in test [1] (substrate 20 mM) is listed as 0%.

On to `CCOC(=O)C(=O)CCc1ccccc1`, for which the Relative activity in test [1] (substrate 20 mM) is reported as 0%.

Regarding `CCC(=O)C(C)=O` [2,3-Pentanedione], the “Reducing activity on substrate (in words)” value in test [1] was “high activity”. Further, the Relative activity in test [1] (substrate 20 mM) is 44.2%.

Compound `CC(=O)CCO` [4-Hydroxy-2-butanone] returned a Relative activity in test [1] (substrate 20 mM) of 0%.

Regarding `CC(=O)C(C)=O` [2,3-Butanedione], the Relative activity in test [1] (substrate 20 mM) was 4.2%.

`CC(=O)C=O` [Methylglyoxal] came in with a Relative activity in test [1] (substrate 20 mM) of 1.8%.

With `COC(=O)CC(=O)CCl` [Methyl 4-chloroacetoacetate], the “Reducing activity on substrate (in words)” value in test [1] is given as “high activity”. The Relative activity in test [1] (substrate 20 mM) stood at 66.3%.

Compound `O=C(O)C(=O)CCc1ccccc1` [Benzylpyruvic acid] showed a Relative activity in test [1] (substrate 1 mM) of 0%.

`O=S(=O)([O-])[O-].[Cu+2]` [Copper sulfate]: the “Inhibition of the enzyme (in words)” value in test [2] is recorded as “inhibited”; in test [2] (listed as cupric sulfate), “significantly inhibited”. In test [2] (setting [4]), the Residual activity is 0.0%.

`O=C1CN2CCC1CC2` [3-Quinuclidinone] had a Relative activity in test [1] (substrate 20 mM) of 0.8%.

In test [1] (substrate 20 mM), `CCOC(=O)CC(C)=O` [Ethyl acetoacetate] had a Relative activity of 0%.

The compound `CC(=O)COC(C)=O` [Acetoxy-2-propanone] registered a Relative activity in test [1] (substrate 20 mM) of 0%.

As to `O=C(O)c1cc[c]([Hg][Cl])cc1` [p-Chloromercuribenzoic acid], the “Inhibition of the enzyme (in words)” value is listed as “completely inhibited” in test [2] and “significantly inhibited” in test [2] (listed as p-chloromercuricbenzoic acid). This compound registered a Residual activity in test [2] (inhibitor 0.05 mM, 30° C., 10 min, standard conditions = 100%) of 0.0%.

`O=CC(=O)c1ccccc1` [Phenylglyoxal]: the Relative activity in test [1] (substrate 0.5 mM) was 0%.

Regarding `COC(=O)CC(C)=O` [Methyl acetoacetate], the Relative activity in test [1] (substrate 20 mM) amounted to 0%.

For the compound `CC(=O)CC(C)=O` [2,4-Pentanedione], the Relative activity in test [1] (substrate 20 mM) is reported as 0%.

For the compound `c1cnc2c(c1)ccc1cccnc12` [o-Phenanthroline], the remaining activity at 1000 µM in test [2] (setting [5]) was 88.3%.

The compound `O=Cc1ccccc1[N+](=O)[O-]` [o-Nitrobenzaldehyde] showed a Relative activity in test [1] (substrate 0.2 mM) of 0%.

`O=C1Nc2ccccc2C1=O` [Isatine] returned a Relative activity in test [1] (substrate 0.4 mM) of 0%.

With `NC(=O)CI` [Iodoacetamide], in test [2] (setting [5]), the remaining activity at 1000 µM is 53.9%.

The compound `CCOC(=O)C[C@@H](O)CCl` [Ethyl (R)-4-chloro-3-hydroxy-acetate] had a Relative activity in test [3] of 0%.

In turn, `CCC=O` [Propionaldehyde] yielded a Relative activity in test [1] (substrate 20 mM) of 0%.

Consider `CCC1(CC)C(=O)NC(=O)NC1=O` [Diethylbarbituric acid], for which the remaining activity at 1000 µM in test [2] (setting [5]) was 82.5%.

In test [2] (setting [4]), `O=S(=O)(F)Cc1ccccc1` [Phenylmethanesulfonyl fluoride] gave a Residual activity of 89.4%.

Compound `O=Cc1cccnc1` [Pyridine-3-aldehyde] came in with a Relative activity in test [1] (substrate 20 mM) of 0%.

`C=CC(C)=O` [Methyl vinyl ketone]: in test [2], the “Inhibition of the enzyme (in words)” value is on record as “inhibited”. Moreover, the remaining activity at 10000 µM in test [2] (inhibitor 10 mM, 30° C., 10 min, standard conditions = 100%, read-out: Residual activity) worked out at 26.3%.

For the compound `[Cl][Hg][Cl]` [Mercuric chloride], the “Inhibition of the enzyme (in words)” value in test [2] is recorded as “significantly inhibited”. In test [2] (inhibitor 0.01 mM, 30° C., 10 min, standard conditions = 100%), this compound yielded a Residual activity of 0.0%.

Regarding `O=S(=O)([O-])[O-].[Zn+2]` [Zinc sulfate], the “Inhibition of the enzyme (in words)” value in test [2] was “inhibited”. The compound further returned a Residual activity in test [2] (setting [4]) of 12.2%.

`O=C(O)CN(CCN(CC(=O)O)CC(=O)O)CC(=O)O` [Ethylenediaminetetraacetic acid]: the remaining activity at 1000 µM in test [2] (read-out: Residual activity) turned out to be 98.4%.

In test [1] (substrate 0.2 mM), `O=Cc1ccc([N+](=O)[O-])cc1` [p-Nitrobenzaldehyde] came in with a Relative activity of 0%.

As for `CCOC(=O)C[C@H](O)CCl`, the Relative activity in test [3] worked out at 0%.

With `CCOC(=O)CC(=O)CCl` [Ethyl 4-chloroacetoacetate], the Relative activity in test [1] (substrate 20 mM) came out at 100%; in test [1] (substrate 20 mM, listed as Ethyl 4-chloroacetoaetate), 0%.

On to `C/C=C/C(=O)O` [Chlotonic acid], for which the remaining activity at 50000 µM in test [2] (inhibitor 50 mM, 30° C., 10 min, standard conditions = 100%, read-out: Residual activity) was found to be 87.7%.

On to `O=C[C@H](O)[C@@H](O)[C@H](O)CO` [Xylose], for which the Relative activity in test [1] (substrate 20 mM) amounted to 0%.

`CCN1C(=O)C=CC1=O` [N-ethylmaleimide]: the “Inhibition of the enzyme (in words)” value in test [2] is given as “inhibited”. Also, the remaining activity at 1000 µM in test [2] (setting [5]) worked out at 20.1%.

Consider `O=c1c(O)c(-c2ccc(O)c(O)c2)oc2cc(O)cc(O)c12` [Quercetin], for which the remaining activity at 100 µM in test [2] (inhibitor 0.1 mM, 30° C., 10 min, standard conditions = 100%, read-out: Residual activity) was determined as 68.1%.

On to `O=Cc1cccc([N+](=O)[O-])c1` [m-Nitrobenzaldehyde], for which the Relative activity in test [1] (substrate 0.2 mM) stood at 0.4%.
